Test results taken from the SangsterLogP compilation.

Compound | logP
O=C(CCl)Nc1ccccc1 | 1.54
CCOC(=O)C1CC(=O)C(=C(O)C2CC2)C(=O)C1 (stereo not drawn) | 2.02
COC(=O)c1ccc(Cl)cc1 | 2.81
CCN1C(=O)C(=O)c2ccc(OC)cc2C1=O | 1.4
O=[N+]([O-])c1ccc(Oc2ccccc2)cc1 | 3.66
c1ccc(-c2ccncn2)cc1 | 1.9
CC(C)N(C(=O)CCl)c1ccccc1 | 2.12
N#Cc1c[nH]cc1-c1cccc2c1OC(F)(F)O2 | 4.16
CC(C)Oc1cccc(NC(=O)c2ccccc2C(F)(F)F)c1 | 3.59
COC(=O)C(C)Oc1ccc(Oc2ccc(Cl)cc2Cl)cc1 (stereo not drawn) | 4.89
Cc1cc(C2CC2)nc(Nc2ccccc2)n1 | 3.91
Cc1cc(C)nc(NC(=O)NS(=O)(=O)c2ccccc2C(=O)OC2COC2)n1 | 1.07
CC(C)(C)[C@H](O)[C@H](Cc1ccc(Cl)cc1)n1cncn1 | 3.09
N#Cc1cnc2ccccc2c1 | 1.64
Cc1cc(Cl)ccc1OCC(=O)O | 2.79
c1ccc2[nH]ccc2c1 | 2.15
CN(C)C(=O)Nc1cc(C(C)(C)C)on1 | 1.91
CCOCn1c(-c2ccc(Cl)cc2)c(C#N)c(Br)c1C(F)(F)F | 5.24
Fc1ccc([C@@]2(Cn3cncn3)O[C@@H]2c2ccccc2Cl)cc1 | 3.3
CCCC1COC(Cn2cncn2)(c2ccc(Cl)cc2Cl)O1 (stereo not drawn) | 3.57
Nc1ccc(Cl)c(Cl)c1 | 2.62
CNC(=O)Oc1cccc2c1OC(C)(C)C2 | 1.59
Nc1ccc(C(F)(F)F)cc1 | 2.31

Compound | logP
Cc1cc(C(F)(F)F)nn1CC(=O)N1CCC(c2nc(C3=NOC(c4c(F)cccc4F)C3)cs2)CC1 (stereo not drawn) | 3.6
c1ccc(-c2ccccn2)nc1 | 1.72
COC(=O)C=Cc1ccccc1 | 2.67
CC(C)N1C(=O)N(c2ccccc2)CSC1=NC(C)(C)C | 4.92
CNC(=O)Oc1ccccc1OC(C)C | 1.55
CC1(C)CCC(Cc2ccc(Cl)cc2)C1(O)Cn1cncn1 (stereo not drawn) | 3.82
O=C(O)COc1ccc(Cl)cc1Cl | 2.66
c1ccc(Sc2ccccc2)cc1 | 4.43
N#Cc1cc(Br)c(O)c(Br)c1 | 2.9
Fc1ccc(Oc2ccnc3cc(Cl)cc(Cl)c23)cc1 | 5.27
CCCCC(O)(Cn1cncn1)c1ccc(Cl)cc1Cl (stereo not drawn) | 3.8
N#CN=C1SCCN1Cc1ccc(Cl)nc1 | 1.26
CCNc1nc(Cl)nc(NC(C)C)n1 | 2.54
OC(Cn1cncn1)(c1ccc(F)cc1)c1ccccc1F (stereo not drawn) | 2.26
CCCCn1nnc2ccccc21 | 2.52
CO/N=C(/C(=O)OC)c1ccccc1CO/N=C(\C)c1cccc(C(F)(F)F)c1 | 4.45
CCC(=O)c1ccccc1 | 2.16
CO/C=C(/C(=O)OC)c1ccccc1Oc1cc(Oc2ccccc2C#N)ncn1 | 2.53
COC(=O)N(C(=O)N1CO[C@@]2(C(=O)OC)Cc3cc(Cl)ccc3C2=N1)c1ccc(OC(F)(F)F)cc1 | 4.75
CCc1cccc(C)c1N(C(=O)CCl)C(C)COC (stereo not drawn) | 3.01
Cc1cc(C)nc(Nc2ccccc2)n1 | 2.84
CC(C)CC(C)c1sccc1NC(=O)c1cn(C)nc1C(F)(F)F (stereo not drawn) | 3.96
CCCOC(=O)C(C)Oc1ccc(Oc2ccc(C(F)(F)F)cn2)cc1 (stereo not drawn) | 4.44

Compound | logP
O=[N+]([O-])C=C1CCCN1Cc1ccc(Cl)nc1 | 0.7
CS(=O)(=O)c1ccccc1 | 0.51
CC(C)(C)C(O)C(Cc1ccc(Cl)cc1Cl)n1cncn1 (stereo not drawn) | 3.69
CCOC(=O)c1cccnc1 | 1.38
Cc1nc(N(C)C)nc(OC(=O)N(C)C)c1C | 1.75
C[Si](Cn1cncn1)(c1ccc(F)cc1)c1ccc(F)cc1 | 3.76
CSc1nnc(C(C)(C)C)c(=O)n1N | 1.61
CCCC(=O)c1c(C)cc(C)c(C2CC(=O)C(/C(CC)=N/OCC)=C(O)C2)c1C (stereo not drawn) | 4.74
CS(=O)(=O)c1ccc(C(=O)C2C(=O)CCCC2=O)c([N+](=O)[O-])c1 | 0.9
CCCCOC(=O)c1ccccc1C(=O)OCCCC | 4.46
CC1(c2ccc(Oc3ccccc3)cc2)OC(=O)N(Nc2ccccc2)C1=O (stereo not drawn) | 4.78
Nc1cc(Cl)cc(Cl)c1 | 2.89
COC(=O)c1ccccc1CS(=O)(=O)NC(=O)Nc1nc(OC)cc(OC)n1 | 2.36
CC(=O)Nc1ccccc1C(F)(F)F | 1.14
c1ccc2c(c1)Nc1ccccc1S2 | 4.08
CC1=CC(=O)CC(C)(C)[C@@]1(O)/C=C/C(C)=C\C(=O)O | 1.71
CC(C)N1C(=O)c2ccccc2NS1(=O)=O | 2.75
CC(C)(C)N(NC(=O)c1ccccc1)C(=O)c1ccccc1 | 2.43
COC(=O)c1cc(Oc2ccc(Cl)cc2Cl)ccc1[N+](=O)[O-] | 4.53
O=c1c2cc(F)ccc2nc(-n2cncn2)n1-c1ccc(Cl)cc1Cl | 3.21
C#CCOc1ccc(CCNC(=O)C(OCC#C)c2ccc(Cl)cc2)cc1OC (stereo not drawn) | 3.16
CCN(CC)C(=O)C(C)Oc1cccc2ccccc12 (stereo not drawn) | 3.22
C#CC(C)(C)NC(=O)c1cc(Cl)cc(Cl)c1 | 3.23

Compound | logP
CC(C)N(Cc1ccccc1)C(=O)C(C)(C)C | 2.98
c1ccc2ccccc2c1 | 3.37
c1ccc(-c2ccccc2)cc1 | 3.96
FC(F)C(F)(F)OCC(Cn1cncn1)c1ccc(Cl)cc1Cl (stereo not drawn) | 3.49
N#Cc1c(Cl)c(Cl)c(Cl)c(C#N)c1Cl | 2.93
CC(Oc1ccc(Oc2ccc(Cl)cc2Cl)cc1)C(=O)O (stereo not drawn) | 4.69
CC(C1CC1)C(O)(Cn1cncn1)c1ccc(Cl)cc1 (stereo not drawn) | 2.99
CC(=O)Nc1cccnc1 | 0.38
O=C1CC(C(=O)O)CC(=O)C1=C(O)C1CC1 (stereo not drawn) | 1.42
COc1c(Cl)ccc(Cl)c1C(=O)O | 2.52
COC(=O)c1ccccc1C(=O)OC | 1.49
CCCC(=O)c1ccccc1 | 2.68
COC(=O)C(C)N(C(=O)c1ccco1)c1c(C)cccc1C (stereo not drawn) | 2.59
O=[N+]([O-])c1ccccc1 | 1.79
Cc1[nH]n(C)c(=O)c1C(=O)c1ccc(C(F)(F)F)cc1S(C)(=O)=O | 0.63
CC(=O)Nc1ccccn1 | 0.56
CC(=NC#N)N(C)Cc1ccc(Cl)nc1 | 0.82
CC(C)N(C)S(=O)(=O)NC(=O)c1cc(-n2c(=O)cc(C(F)(F)F)n(C)c2=O)c(F)cc1Cl | 2.33
C[C@@H](Oc1ccc(Oc2ccc(C#N)cc2F)cc1)C(=O)O | 3.08
CON(C(=O)c1cn(C)nc1C(F)F)C(C)Cc1c(Cl)cc(Cl)cc1Cl (stereo not drawn) | 3.77
COc1nc(C)nc(NC(=O)NS(=O)(=O)c2ccccc2CCC(F)(F)F)n1 | 2.87
CCCCOC(=O)C(C)Oc1ccc(Oc2ccc(C(F)(F)F)cn2)cc1 (stereo not drawn) | 5.01
CCON=C(CC)C1=C(O)CC(c2c(C)cc(C)cc2C)CC1=O (stereo not drawn) | 4.77

Compound | logP
CCCN(CCOc1c(Cl)cc(Cl)cc1Cl)C(=O)n1ccnc1 | 4.02
CNC(=O)Nc1ccc(C(=O)O)cc1 | 1.16
CC1=C(C(=O)Nc2ccccc2)SCCO1 | 2.08
CC(C)(C)C(O)(CCc1ccc(Cl)cc1)Cn1cncn1 (stereo not drawn) | 3.59
CO/N=C(/C1=NOCCO1)c1ccccc1Oc1ncnc(Oc2ccccc2Cl)c1F | 2.95
c1ccc(-c2ccc(C(c3ccccc3)n3ccnc3)cc2)cc1 (stereo not drawn) | 5.12
CCOC(=O)c1ccc([N+](=O)[O-])cc1 | 2.43
CCCCc1c(C)nc(NCC)[nH]c1=O | 2.23
c1ccc(Oc2ccccn2)cc1 | 2.36
COP(=S)(OC)SCN1C(=O)c2ccccc2C1=O | 2.71
COC(=O)c1ccccc1S(=O)(=O)NC(=O)Nc1nc(OC(F)F)cc(OC(F)F)n1 | 3.49
COCC(=O)N(c1c(C)cccc1C)C(C)C(=O)OC (stereo not drawn) | 1.6
CCOc1cc(Oc2ccc(C(F)(F)F)cc2Cl)ccc1[N+](=O)[O-] | 5.19
C=CCN(CC=C)C(=O)C(Cl)Cl | 1.77
CNC(=O)Nc1ccc(S(=O)(=O)NC(=O)c2ccccc2OC)cc1 | 1.95
Cc1ccc(NC(=O)N(C)C)cc1Cl | 2.43
O=[N+]([O-])c1c(Cl)c(Cl)cc(Cl)c1Cl | 4.28
Oc1cccc2cccnc12 | 1.93
CCOC(=O)C(C)Oc1ccc(Oc2ccc(C(F)(F)F)cn2)cc1 (stereo not drawn) | 3.9
CCCCCOC(=O)C(C)Oc1ccc(Oc2ccc(C(F)(F)F)cn2)cc1 (stereo not drawn) | 5.6
Cc1ccc(CO)cc1 | 1.62
O=Cc1cccc(Oc2ccccc2)c1 | 3.32
CCSC(=O)N(CC(C)C)CC(C)C | 4.1

Compound | logP
CC1COC(Cn2cncn2)(c2ccc(Oc3ccc(Cl)cc3)cc2Cl)O1 (stereo not drawn) | 4.24
COC(=O)Cc1ccccc1 | 1.75
c1ccc2[nH]cnc2c1 | 1.29
CCNc1nc(Cl)nc(NCC)n1 | 2.09
CCCCC(C#N)(Cn1cncn1)c1ccc(Cl)cc1 (stereo not drawn) | 3.06
COc1cc(OC)nc(NC(=O)NS(=O)(=O)c2ncccc2OCC(F)(F)F)n1 | 1.85
CN(C)C(=O)Nc1ccc(Cl)c(Cl)c1 | 2.74
Cn1cc(C(=O)Nc2cccc3c2[C@@H]2CC[C@H]3C2=C(Cl)Cl)c(C(F)F)n1 | 4.34
CS(=O)(=O)c1ccc(C(=O)C2C(=O)CCCC2=O)c(Cl)c1 | 1.2
CC(C)(C)C(=O)C(Oc1ccc(Cl)cc1)n1cncn1 (stereo not drawn) | 3.11
Cc1cccc2sc3nncn3c12 | 1.42
COc1nc(C)nc(NC(=O)NS(=O)(=O)c2ccccc2OCCCl)n1 | 1.72
CO/C=C(/C(=O)OC)c1ccccc1COc1cc(C(F)(F)F)nc(OC(C)C)n1 | 4.18
Nc1c(Cl)cccc1Cl | 2.75
CS(=O)(=O)c1ccc(C(=O)C2C(=O)CCCC2=O)c(Cl)c1COCC(F)(F)F | 2.15
COC(=O)NCc1cc(/C(C)=N/OCc2cccc(C)n2)ccc1Cl | 3.64
C[C@@H](Oc1ccc(Oc2ccc(C(F)(F)F)cn2)cc1)C(=O)O | 3.21
O=C(NCCc1ncc(C(F)(F)F)cc1Cl)c1ccccc1C(F)(F)F | 3.26
